Assay results as given in patent US4416826A, “Peresters and use thereof” (priority 1980, dated 1983).
Read-outs that look alike come from different tables or passages of the source.

Experiments:
[1] = Photodecomposition kinetics and quantum yields at 366 nm (benzophenone-benzhydrol actinometry); assay type: physicochemical
Protocol: Kinetic studies are carried out in degassed, sealed tubes by irradiating them with 366 nm light obtained from a Hanovia medium-pressure mercury lamp by combining the Corning Filters 0-52 and 7-60. The decompositions of the […] followed by the carbonyl IR absorption adjacent to the peroxide group (O=COO--) (1770 cm^-1). Benzophenone-benzhydrol redox actinometry are used throughout the study. In particular, a solution of […] (2 mL) in the appropriate solvent is placed in Pyrex tubes (12-mm diameter), degassed, and sealed under vacuum. Three cycles of freeze-thaw removes dissolved oxygen. The tubes are placed in a merry-go-round around a water-cooled light source, removed at different predetermined intervals, and kept frozen in liquid nitrogen in the dark until analysis is done. The estimation of […] done by quantitative IR, monitoring the carbonyl peak at 1770 cm^-1. […] Absorbance is measured with a 0.1 mm NaCl cell against solvent reference. With every run, two tubes containing actinometric solutions (benzophenone (0.1 M) and benzhydrol (0.05 M) in benzene are irradiated.

[2] = Polymerization of methyl methacrylate; details: initiator 5 × 10^-2 M, [MMA] = 3.1 M, 25° C., benzene
Protocol: Commercial methyl methacrylate monomer is washed three times with 2% NaOH solution to remove stabilizer. It is then washed with distilled water three times, dried with molecular sieves, and distilled under vacuum before use. Polymerization solutions are prepared in cylindrical tubes which are degassed and sealed. The amount of polymer formed is determined by precipitating the polymer with an excess of methanol, washing with methanol, and filtering through fine sintered crucibles (previously weighed) followed by drying in a vacuum oven. The irradiation condition is the same as that in the decomposition rate example hereinabove.

[3] = Relative quantum yield of initiator decomposition in presence of monomer (IR at 1770 cm^-1); assay type: physicochemical; details: for relative quantum yield φrel of decomposition: benzene, initiator 2 × 10^-2 M
Protocol: Commercial styrene is washed three times with ice cold 2% NaOH solution followed by washing (four times) with distilled water. The styrene is dried over anhydrous CaCl2 and distilled under vacuum before use. The middle fraction of the distillate is used for polymerization. Solvents are purified by conventional means and distilled under N2 atmosphere.
The irradiations are carried out in degassed (three cycles of freeze-thaw under high vacuum) sealed 15-mm Pyrex tubes. The tubes are placed in a merry-go-round with a filtered UV source of 366 nm at the center and the yield of polymer is measured (below 10% conversion) gravimetrically. In all of the cases, tubes of the same size and same volume of solution are used. Number-average molecular weights of the purified polymers are determined by viscometry in a benzene solution. After the polymerization, an aliquot of 0.5 ml from each reaction tube is placed in 2-ml volumetric flasks. The solvent and excess monomer are evaporated under high vacuum for several hours. The remaining flask contents are dissolved in 0.5 ml of benzene or chloroform and the polymer is precipitated by adding 0.5 ml of n-hexane. The solution then is centrifuged and the IR of the centrifugate is measured to determine undecomposed perester. All of the above procedures are carried out as far as possible in the dark. The light intensity is measured by benzophenone-benzhydrol actinometry and observed to be Io =6.56×10^17 quanta/min on the average. The temperature of the tubes is maintained at 30° C.
The decomposition of the initiator employed is followed by IR at 1770 cm^-1 (caused by the carbonyl adjacent to the peroxy group) against an appropriate solvent blank. The initiators employed are .rho.-benzoylperoxybenzoic acid tert-butylester (Ia) and prior art benzophenone peroxide. In addition, the above procedure is repeated except that methyl methacrylate is employed in place of styrene. Table IX below illustrates the relative quantum yield for the decomposition of the initiators in the recited amounts of monomers, assuming that the quantum yield for the decomposition of the perester and peroxide in the absence of any monomer is one.

[4] = End group analysis of polystyrene by IR
Protocol: The polystyrene obtained from each of the above polymerizations is purified by repeated (four times) precipitation from benzene solution with methanol. Before each precipitation, the benzene solution is centrifuged to remove any insoluble material. The finely powdered polymer is filtered and dried under vacuum for two days. Known amounts of polymer are dissolved in benzene and the IR is taken (2000-1500 cm^-1) against benzene in 0.1-mm NaCl cells. The peaks at 1730 and 1670 cm^-1 for the carbonyl groups, caused by ester and benzophenones, respectively, are measured. […] The extinction coefficient of the carbonyl group at 1730 cm^-1 is compared with that of authenticated methyl benzoylbenzoate, which is used as a model to measure the concentration of the ester end groups in the polymer. From the concentration of the ester and the extinction resulting from the carbonyl group in the benzophenone, the absorption caused by the benzophenone that is present as the ester can be calculated. The value is subtracted from the absorption obtained at 1670 cm^- 1 for the polymer. From the resulting absorption, the concentration of benzophenone alone is estimated from the known extinction of benzophenone at that wavelength.

[5] = Thermal stability / thermal decomposition of peresters in the dark; assay type: physicochemical; details: 110° C., chlorobenzene, dark; initial concn Ia 5.01, Ib 5.15, Ic 5.19 × 10^-2 M
[6] = Exp. 1: benzene, [I] 10 × 10^-3 M, styrene 2 M
[7] = Exp. 2: benzene, [I] 10 × 10^-3 M, styrene 3.5 M
[8] = Exp. 3: benzene, [I] 10 × 10^-3 M, styrene 5.0 M
[9] = Exp. 4: benzene, [I] 10 × 10^-3 M, styrene 7.0 M
[10] = Exp. 5: chloroform, [I] 5.0 × 10^-3 M, styrene 5.51 M
[11] = Exp. 6: chloroform, [I] 5.0 × 10^-3 M, styrene 6.92 M

photodecomposition behaviour, in words ([1]; 366 nm radiation, room temperature): decomposes smoothly at room temperature
apparent first-order photodecomposition rate constant kd × 10^4 ([1]; C6 H6, 25° C., 366 nm, I = 6.56 × 10^17 quanta/min, 5.03-6.06 × 10^-2 M, given as kd × 10^4): 1.84 s^-1
quantum yield of decomposition (φ of dec) ([1]; C6 H6, 366 nm, perester 5.03-6.06 × 10^-2 M): 0.94
quantum yield of decomposition (φ of dec) ([1]; CCl4, 3.56 × 10^-2 M, TBP 3.76 × 10^-2 M): 0.74
quantum yield of decomposition (φ of dec) ([1]; CCl4, 3.56 × 10^-2 M, no TBP): 0.90
quantum yield of decomposition (φ of dec) ([1]; CCl4, 4.78 × 10^-2 M, TBP 5.01 × 10^-2 M): 0.79
quantum yield of decomposition (φ of dec) ([1]; CCl4, 7.16 × 10^-2 M, no TBP): 1.05
quantum yield of decomposition (φ of dec) ([1]; methanol, TBP 5.08 × 10^-2 M, Ia 5.38, Ib 6.15 × 10^-2 M): 0.64
quantum yield of decomposition (φ of dec) ([1]; methanol, no TBP, Ia 5.38, Ib 6.15, Ic 5.10 × 10^-2 M): 2.77
relative quantum yield φrel of decomposition ([3]; styrene 1.09 M): 0.25
relative quantum yield φrel of decomposition ([3]; styrene 2.19 M): 0.20
relative quantum yield φrel of decomposition ([3]; styrene 3.28 M): 0.14
relative quantum yield φrel of decomposition ([3]; styrene 4.37 M): 0.12
relative quantum yield φrel of decomposition ([3]; styrene 8.73 M): very low
thermal half-life t1/2 [5]: 6.7 h
Structure (SMILES): CC(C)(C)OOC(=O)c1ccc(C(=O)c2ccccc2)cc1 [Ia, t-Butyl-4-Benzoylperbenzoate]
Rate of Polymerization (Rp) of MMA, Rp × 10^5 [2]: 8.33 mL^-1 s^-1
effect of styrene on quantum yield of decomposition, in words [3]: Styrene drastically reduces the quantum yield of decomposition
total number of benzophenones as end groups per chain, in words [4]: one benzophenone end group
end groups per chain, Benzophenone [4, 6]: 0.18
end groups per chain, Benzophenone as ester [4, 6]: 0.52
end groups per chain, Total [4, 6]: 0.70
end groups per chain, Benzophenone [4, 7]: 0.13
end groups per chain, Benzophenone as ester [4, 7]: 0.68
end groups per chain, Total [4, 7]: 0.81
end groups per chain, Benzophenone [4, 8]: 0.33
end groups per chain, Benzophenone as ester [4, 8]: 0.73
end groups per chain, Total [4, 8]: 1.06
end groups per chain, Benzophenone [4, 9]: 0.18
end groups per chain, Benzophenone as ester [4, 9]: 0.81
end groups per chain, Total [4, 9]: 0.99
end groups per chain, Benzophenone [4, 10]: 0.29
end groups per chain, Benzophenone as ester [4, 10]: 0.62
end groups per chain, Total [4, 10]: 0.91
end groups per chain, Benzophenone [4, 11]: 0.34
end groups per chain, Benzophenone as ester [4, 11]: 0.71
end groups per chain, Total [4, 11]: 1.05
total number of benzophenones as end groups per chain, in words ([4]; listed as Perester): almost unity
thermal 1st order dec rate × 10^5 [5]: 2.88 M × 10^5 s^-1
